Columns and labels:
Format in all cases: in vivo
[1] = test system: upland rice (Oryza sp., var. Tebonnet, RICE); test: Pre-emerge test, crop safety; settings: pre-emerge, 14 days after application, scale 0-100
In short: (§1)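 Applied at 15–1000 g ai/ha from acetone in 187 l/ha spray volume. Post-emergence applications included 0.25% v/v non-ionic surfactant and reached plants sown 8–21 days before. Pre-emergence applications were incorporated by surface watering. Efficacy or crop damage was rated on a 0–100 scale after 14 days.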

[2] = test system: field corn (Zea mays L., var. Dekalb 535, CORN); test: Pre-emerge test, crop safety; settings: pre-emerge, 14 days after application, scale 0-100
In short: as §1

[3] = test system: upland rice (Oryza sp., var. Tebonnet, RICE); test: Post-emerge test, crop safety; settings: post-emerge, 14 days after application, rating scale 0-100
In short: (§2)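 Sandy loam pots; pre-emerge: sown 1 d pre-spray, surface-watered after, then bottom-watered. Post-emerge: sown 8–21 d before, 2–3 leaf stage, + 0.25% v/v NIS, bottom-watered. Acetone, 187 l/ha track spray, 15–1000 g ai/ha. 0–100 injury score, day 14.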

[4] = test system: field corn (Zea mays L., var. Dekalb 535, CORN); test: Post-emerge test, crop safety; settings: post-emerge, 14 days after application, rating scale 0-100
In short: as §2

[5] = test system: ivyleaf morningglory (Ipomoea hederacea, IPOHE); test: Pre-emerge test, greenhouse herbicide activity screening; settings: pre-emerge, 14 days after application, scale 0-100
In short: as §2

[6] = test system: green foxtail (Setaria viridis, SETVI); test: as above; settings: pre-emerge, 14 days after application, scale 0-100
In short: as §2

[7] = test system: barnyardgrass (Echinochloa crus-galli, ECHCG); test: as above; settings: pre-emerge, 14 days after application, scale 0-100
In short: as §2

[8] = test system: large crabgrass (Digitaria sanguinalis, DIGSA); test: as above; settings: pre-emerge, 14 days after application, scale 0-100
In short: as §2

[9] = test system: johnsongrass (Sorghum halepense, SORHA); test: as above; settings: pre-emerge, 14 days after application, scale 0-100
In short: as §2

[10] = test system: lambsquarters (Chenopodium album, CHEAL); test: as above; settings: pre-emerge, 14 days after application, scale 0-100
In short: as §2

[11] = test system: velvetleaf (Abutilon theophrasti, ABUTH); test: as above; settings: pre-emerge, 14 days after application, scale 0-100
In short: as §2

[12] = test system: sicklepod (Cassia obtusifolia, CASOB); test: as above; settings: pre-emerge, 14 days after application, scale 0-100
In short: as §2

[13] = test system: ivyleaf morningglory (Ipomoea hederacea, IPOHE); test: Post-emerge test, greenhouse herbicide activity screening; settings: post-emerge, 14 days after application, rating scale 0-100
In short: (§3)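 Fourteen days after spraying, crop and weed injury was graded visually from 0, no effect, to 100, every plant dead. Test substances were dissolved in acetone and applied at 15–1000 g ai/ha with a flat-fan nozzle. Application was either pre-emergence, one day after sowing, or post-emergence at the 2–3 leaf stage.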

[14] = test system: green foxtail (Setaria viridis, SETVI); test: as above; settings: post-emerge, 14 days after application, rating scale 0-100
In short: as §3

[15] = test system: barnyardgrass (Echinochloa crus-galli, ECHCG); test: as above; settings: post-emerge, 14 days after application, rating scale 0-100
In short: as §3

[16] = test system: large crabgrass (Digitaria sanguinalis, DIGSA); test: as above; settings: post-emerge, 14 days after application, rating scale 0-100
In short: as §3

[17] = test system: johnsongrass (Sorghum halepense, SORHA); test: as above; settings: post-emerge, 14 days after application, rating scale 0-100
In short: as §3

[18] = test system: lambsquarters (Chenopodium album, CHEAL); test: as above; settings: post-emerge, 14 days after application, rating scale 0-100
In short: as §3

[19] = test system: velvetleaf (Abutilon theophrasti, ABUTH); test: as above; settings: post-emerge, 14 days after application, rating scale 0-100
In short: as §3

[20] = test system: sicklepod (Cassia obtusifolia, CASOB); test: as above; settings: post-emerge, 14 days after application, rating scale 0-100
In short: as §3

[21] = test system: redroot pigweed (Amaranthus retroflexus, AMARE); test: as above; settings: post-emerge, 14 days after application, rating scale 0-100
In short: as §3

[22] = test system: redroot pigweed (Amaranthus retroflexus, AMARE); test: Pre-emerge test, greenhouse herbicide activity screening; settings: pre-emerge, 14 days after application, scale 0-100
In short: as §2

Q: For COc1c(Cl)cc(F)c(-n2c(=O)cc(C(F)(F)F)n(C)c2=O)c1NC(=O)c1cc2ccccc2cc1C [2-155], which “phytotoxicity rating RICE (crop damage)” value ([1]; 63 g ai/ha) is on record?
A: 30

Q: And the “phytotoxicity rating RICE (crop damage)” value ([1]; 125 g ai/ha)?
A: 60

Q: And the “phytotoxicity rating CORN (crop damage)” value ([2]; 63 g ai/ha)?
A: 0

Q: And the “phytotoxicity rating CORN (crop damage)” value ([2]; 125 g ai/ha)?
A: 15

Q: What about the “RICE phytotoxicity rating (crop damage)” value ([3]; 63 g ai/ha) of the same compound?
A: 25

Q: And the “RICE phytotoxicity rating (crop damage)” value ([3]; 125 g ai/ha)?
A: 80

Q: And the “CORN phytotoxicity rating (crop damage)” value ([4]; 63 g ai/ha)?
A: 70

Q: And the “CORN phytotoxicity rating (crop damage)” value ([4]; 125 g ai/ha)?
A: 90

Q: And the “phytotoxicity rating IPOHE” value ([5]; 63 g ai/ha)?
A: 0

Q: And the “phytotoxicity rating IPOHE” value ([5]; 125 g ai/ha)?
A: 40

Q: What about the “phytotoxicity rating SETVI” value ([6]; 63 g ai/ha) of the same compound?
A: 60

Q: What about the “phytotoxicity rating SETVI” value ([6]; 125 g ai/ha) of the same compound?
A: 95

Q: What about the “phytotoxicity rating ECHCG” value ([7]; 63 g ai/ha) of the same compound?
A: 50

Q: And the “phytotoxicity rating ECHCG” value ([7]; 125 g ai/ha)?
A: 70

Q: And the “phytotoxicity rating DIGSA” value ([8]; 63 g ai/ha)?
A: 85

Q: And the “phytotoxicity rating DIGSA” value ([8]; 125 g ai/ha)?
A: 100

Q: And the “phytotoxicity rating SORHA” value ([9]; 63 g ai/ha)?
A: 30

Q: And the “phytotoxicity rating SORHA” value ([9]; 125 g ai/ha)?
A: 70

Q: And the “phytotoxicity rating CHEAL” value ([10]; 63 g ai/ha)?
A: 100

Q: What about the “phytotoxicity rating CHEAL” value ([10]; 125 g ai/ha) of the same compound?
A: 100

Q: What about the “phytotoxicity rating ABUTH” value ([11]; 63 g ai/ha) of the same compound?
A: 100

Q: What about the “phytotoxicity rating ABUTH” value ([11]; 125 g ai/ha) of the same compound?
A: 100

Q: What about the “phytotoxicity rating CASOB” value ([12]; 63 g ai/ha) of the same compound?
A: 0

Q: And the “phytotoxicity rating CASOB” value ([12]; 125 g ai/ha)?
A: 30

Q: What about the IPOHE phytotoxicity rating ([13]; 63 g ai/ha) of the same compound?
A: 100

Q: And the IPOHE phytotoxicity rating ([13]; 125 g ai/ha)?
A: 100

Q: And the SETVI phytotoxicity rating ([14]; 63 g ai/ha)?
A: 50

Q: What about the SETVI phytotoxicity rating ([14]; 125 g ai/ha) of the same compound?
A: 70

Q: What about the ECHCG phytotoxicity rating ([15]; 63 g ai/ha) of the same compound?
A: 30

Q: What about the ECHCG phytotoxicity rating ([15]; 125 g ai/ha) of the same compound?
A: 60

Q: What about the DIGSA phytotoxicity rating ([16]; 63 g ai/ha) of the same compound?
A: 40

Q: What about the DIGSA phytotoxicity rating ([16]; 125 g ai/ha) of the same compound?
A: 50

Q: What about the SORHA phytotoxicity rating ([17]; 63 g ai/ha) of the same compound?
A: 30

Q: And the SORHA phytotoxicity rating ([17]; 125 g ai/ha)?
A: 50

Q: What about the CHEAL phytotoxicity rating ([18]; 63 g ai/ha) of the same compound?
A: 100

Q: And the CHEAL phytotoxicity rating ([18]; 125 g ai/ha)?
A: 100

Q: What about the ABUTH phytotoxicity rating ([19]; 63 g ai/ha) of the same compound?
A: 100

Q: What about the ABUTH phytotoxicity rating ([19]; 125 g ai/ha) of the same compound?
A: 100

Q: What about the CASOB phytotoxicity rating ([20]; 63 g ai/ha) of the same compound?
A: 100

Q: What about the CASOB phytotoxicity rating ([20]; 125 g ai/ha) of the same compound?
A: 100

Q: And the AMARE phytotoxicity rating ([21]; 63 g ai/ha)?
A: 100

Q: What about the AMARE phytotoxicity rating ([21]; 125 g ai/ha) of the same compound?
A: 100

Q: And the “phytotoxicity rating AMARE” value ([22]; 63 g ai/ha)?
A: 100

Q: And the “phytotoxicity rating AMARE” value ([22]; 125 g ai/ha)?
A: 100
